Laboratory results taken from patent publication US9278942B2, “Non-steroidal compounds as androgen receptor modulators” (FLX Discoveries Oy, priority 2011, dated 2016).
Like-named read-outs stand apart in the source and are kept apart here. Values belong to the molecule of their own block, whether it stands above or below them.

What was measured:
human AR [1] = molecular target: T1, human AR (Homo sapiens, UniProt P10275); test: Competitive AR binding assay against [3H]-R1881 in transiently transfected COS-1 cells; conditions: compound 13.4 μM, [3H]-R1881 1.34 nM, complete inhibition equals 100%; for inhibition at 13.4 µM: read-out: Inhibition of [3H]-R1881 binding at 1.34 nM ± S.D.
T1 construct: expressed in transfected cells; host or cells: COS-1
T1 sequence (P10275 1-920): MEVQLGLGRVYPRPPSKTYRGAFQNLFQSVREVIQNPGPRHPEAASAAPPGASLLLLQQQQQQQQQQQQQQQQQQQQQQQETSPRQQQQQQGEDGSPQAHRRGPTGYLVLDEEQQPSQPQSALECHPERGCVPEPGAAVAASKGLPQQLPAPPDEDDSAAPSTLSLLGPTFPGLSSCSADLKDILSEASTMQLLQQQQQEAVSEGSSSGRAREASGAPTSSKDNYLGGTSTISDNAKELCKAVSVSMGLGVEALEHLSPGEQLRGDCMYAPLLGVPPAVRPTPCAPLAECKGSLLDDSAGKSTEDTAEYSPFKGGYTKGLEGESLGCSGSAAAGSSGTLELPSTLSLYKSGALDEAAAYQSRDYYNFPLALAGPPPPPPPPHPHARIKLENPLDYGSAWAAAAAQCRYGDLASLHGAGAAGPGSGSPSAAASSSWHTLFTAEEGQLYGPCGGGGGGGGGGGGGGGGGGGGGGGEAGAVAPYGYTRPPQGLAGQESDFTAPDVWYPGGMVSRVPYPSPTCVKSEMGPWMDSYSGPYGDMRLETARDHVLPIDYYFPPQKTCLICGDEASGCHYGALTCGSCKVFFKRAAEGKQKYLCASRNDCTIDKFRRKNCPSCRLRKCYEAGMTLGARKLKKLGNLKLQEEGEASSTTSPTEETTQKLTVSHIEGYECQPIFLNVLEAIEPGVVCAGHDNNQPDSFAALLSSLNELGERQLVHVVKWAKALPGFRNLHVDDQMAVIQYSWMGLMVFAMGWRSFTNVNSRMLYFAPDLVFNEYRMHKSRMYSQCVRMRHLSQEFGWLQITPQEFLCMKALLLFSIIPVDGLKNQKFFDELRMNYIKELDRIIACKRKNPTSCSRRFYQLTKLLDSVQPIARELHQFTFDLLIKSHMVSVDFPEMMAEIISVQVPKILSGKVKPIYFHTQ
Protocol: Competitive AR Binding Assay.
AR binding was measured by a competitive assay against [^3H]-R1881 (PerkinElmer) in transiently transfected COS-1 cells. One day before transfection, COS-1 cells were seeded into 2 ml of DMEM (Dulbecco's modified Eagle medium, Gipco) with 10% dextran-charcoal-treated fetal bovine serum and 0.25% (vol/vol) Penicillin-Streptomysin (Euroclone) at a density of 140×10^3 cells/well. After medium change to DMEM 2.5% FBS, the cells were transfected for 24 hours with 10 ng/well of human AR expression vector pSG5 hAR by using the TransIT method (Micrus Bio TransIT LT1, Transfection Reagent). After 36 hours, the cells where treated with tested compounds using 10000 fold molarities compared to labelled R1881 (1.34 nM). After 2 hours of incubation at 37° C., the medium was removed. The cells were removed from the wells to 150 μl of 1× phosphate buffered saline (PBS), transferred to Eppendorf tubes and centrifuged at 4° C. using 4000×g for 5 min, and then washed twice with 150 μl of PBS. The cell pellets were dissolved to 50 μl of 0.5M NaOH and incubated for 15 min at 56° C., after which the samples (three replicates for each sample compound) were transferred to liquid twinkle tubes with 3 ml of OptiPhase HiSafe 3 twinkle solution (PerkinElmer) and radioactivity of AR-bound [^3H]-R1881 determined. The results were measured with LKB WALLAC 1214 racbeta equipment. The ability of test compounds to bind AR is reported as reduction in bound radioactivity obtained with 1.34 nM [^3H]-R1881.
The results (% inhibition) were calculated as: % inhibition=100−[100×(averagecompound/average[3H]-R1881)].

human AR [2] = molecular target: T1, human AR; test: AR antagonism assay: inhibition of transcriptional activation of AR (Probasin-luc reporter, COS-1 cells); format: cell-based; conditions: compound 10.0 μM, relative luciferase response: 100% for testosterone (no antiandrogenic effect), 0% for complete antagonism; for remaining activity at 10 µM: COS-1, 18 h, read-out: AR antagonism against 100 nM testosterone ± S.D.
Protocol: Determination of the Antiandrogen Activity.
Testosterone was bought from Sigma Chemical Co. (St. Louis, Mo.) and hydroxyflutamide from Chemos GmbH. One day before transfection, COS-1 cells (from ATCC) were seeded into 1 ml of DMEM (Dulbecco's modified Eagle medium, Gibco) with 10% dextran-charcoal-treated fetal bovine serum and 0.25% (vol/vol) Penicillin-Streptomycin (Euroclone) at a density of 70×10^3 cells/well. After medium change to DMEM 2.5% FBS, the cells were transfected for 24 hours with 10 ng/well of human AR expression vector pSG5-hAR, 100 ng/well of reporter plasmid Probasin-luc, and 10 ng/well of control plasmid pCMV-β-gal by using the TransIT method (Micrus Bio TransIT LT1, Transfection Reagent). After the transfection, the cells received treatment of test compounds giving final concentration of 10 μM for each compound. In the antagonist test the wells were also treated with 100 nM final concentration of testosterone. After 18 hours, the cells were washed, lysed and assayed for luciferase and normalization for β-galactosidase activities and protein concentrations. The cells were washed with 100 μl of cold phosphate buffered saline (PBS) and lysed with 35 μl 1× Reporter lysis Buffer (Promega) and frozen (−70° C.) for 30 minutes. Cell lysates were placed in 1.5-ml propylene tubes and centrifuged at 13200×g for 5 minutes at room temperature. For β-galactosidase assay 10 μl of supernatant from each cell extract was transferred to a 96-well plate (96 well Elisa Microplates, PS, Microcon) and incubated for 10 minutes at 37° C. with 65 μl of reaction mixture consisting 0.76 μl 100×Mg-buffer, 12.5 μl ONPG (4 mg/ml), and 54.3 μl of sodium-phosphate buffer (pH 7). The reaction was stopped with treatment of 125 μl Na2CO3. For luciferase assay 10 μl of the supernatant was transferred to a 96-well plate (Greiner Microlon lumitrac 200) and treated with 30 μl of luciferase assay substrate solution (Promega Luciferase Assay System E1501). For the study of protein concentrations 5 μl of the supernatant was transferred to a 96-well plate (Elisa Microplates, PS, Microcon) and mixed with 200 μl of Bio-rad protein assay reagent. The luciferase activities were measured with Thermo Luminoscan Ascent scanner and the protein concentrations and β-galactosidase activities with Thermo Labsystem Multiscan Ex scanner. Also blank and control samples were measured. During the maintenance, transfection, and treatment with tested compounds the cells were incubated in humidified atmosphere with 5% carbon dioxide at 37° C.

Structure (SMILES): Fc1ccc(C2=NOC3CCCC23)cc1C(F)(F)F (stereo not drawn) [Example 19ab, 3-(4-Fluoro-3-trifluoromethyl-phenyl)-4,5,6,6a-tetrahydro-3aH-cyclopenta[d]-isoxazole]
inhibition at 13.4 µM (human AR [1]; Table 2): 84.6 ± 4.9%
remaining activity at 10 µM (human AR [2]): 54.6 ± 2.3%

Structure (SMILES): N#Cc1ccc(C2=NOC3CCCCCCC23)cc1C(F)(F)F (stereo not drawn) [Example 92ab, 4-(3a,4,5,6,7,8,9,9a-Octahydro-cycloocta[d]isoxazol-3-yl)-2-trifluoromethyl-benzonitrile]
inhibition at 13.4 µM (human AR [1]; Table 2): 85.8 ± 1.3%
remaining activity at 10 µM (human AR [2]): 24 ± 1.7%

Structure (SMILES): Fc1ccc(C2=NOC3CCCC23)c(C(F)(F)F)c1 (stereo not drawn) [Example 20a, 3-(4-Fluoro-2-trifluoromethyl-phenyl)-4,5,6,6a-tetrahydro-3aH-cyclopenta[d]isoxazole]
inhibition at 13.4 µM (human AR [1]; Table 3): 89.3 ± 3.8%
remaining activity at 10 µM (human AR [2]): 23.2 ± 0.5%

Structure (SMILES): Fc1ccc(C2=NOC3CCCC23)c(C(F)(F)F)c1 (stereo not drawn) [Example 20b, 3-(4-Fluoro-2-trifluoromethyl-phenyl)-4,5,6,6a-tetrahydro-3aH-cyclopenta[d]isoxazole]
Inhibition of [3H]-R1881 binding at 1.34 nM ± S.D. (human AR [1]; Table 3): 85.3 ± 2.8%
AR antagonism against 100 nM testosterone ± S.D. (human AR [2]): 37.4 ± 7.3%

Structure (SMILES): O=[N+]([O-])c1ccc(C2=NOC3CCCCCC23)c(C(F)(F)F)c1 (stereo not drawn) [Example 42b, 3-(4-Nitro-2-trifluoromethyl-phenyl)-4,5,6,7,8,8a-hexahydro-3aH-cyclohepta[d]isoxazole]
Inhibition of [3H]-R1881 binding at 1.34 nM ± S.D. (human AR [1]; Table 2): 89.5 ± 2.0%
Inhibition of [3H]-R1881 binding at 1.34 nM ± S.D. (human AR [1]; Table 3): 89.3 ± 4.8%
AR antagonism against 100 nM testosterone ± S.D. (human AR [2]): 25.5 ± 1.5%

Structure (SMILES): O=[N+]([O-])c1ccc(C2=NOC3CCCC23)cc1C(F)(F)F (single isomer, unassigned) [Example 21a, 3-(4-Nitro-3-trifluoromethyl-phenyl)-4,5,6,6a-tetrahydro-3aH-cyclopenta[d]isoxazole]
Inhibition of [3H]-R1881 binding at 1.34 nM ± S.D. (human AR [1]; Table 3): 69.7 ± 4.5%
remaining activity at 10 µM (human AR [2]): 19.2 ± 6.8%

Structure (SMILES): Fc1ccc(C2=NOC3CCCCCC23)c(C(F)(F)F)c1 (stereo not drawn) [Example 40b, 3-(4-Fluoro-2-trifluoromethyl-phenyl)-4,5,6,7,8,8a-hexahydro-3aH-cyclohepta[d]isoxazole]
Inhibition of [3H]-R1881 binding at 1.34 nM ± S.D. (human AR [1]; Table 2): 92.2 ± 0.7%
AR antagonism against 100 nM testosterone ± S.D. (human AR [2]): 15.6 ± 0.8%

Structure (SMILES): N#Cc1ccc(C2=NOC3CCCC23)cc1C(F)(F)F (single isomer, unassigned) [Example 85b, 4-(4,5,6,6a-Tetrahydro-3aH-cyclopenta[d]isoxazol-3-yl)-2-trifluoromethyl-benzonitrile]
Inhibition of [3H]-R1881 binding at 1.34 nM ± S.D. (human AR [1]; Table 2): 91.8 ± 1.7%
AR antagonism against 100 nM testosterone ± S.D. (human AR [2]): 18.9 ± 0.5%

Structure (SMILES): Fc1ccc(C2=NOC3CCCCCC23)c(C(F)(F)F)c1 (stereo not drawn) [Example 40a, 3-(4-Fluoro-2-trifluoromethyl-phenyl)-4,5,6,7,8,8a-hexahydro-3aH-cyclohepta[d]isoxazole]
inhibition at 13.4 µM (human AR [1]; Table 2): 88.8 ± 3.1%
remaining activity at 10 µM (human AR [2]): 28.8 ± 2%

Structure (SMILES): Oc1ccc(C2=NOC3CCCCC23)cc1 (stereo not drawn) [Example 26a, 4-(3a,4,5,6,7,7a-Hexahydro-benzo[d]isoxazol-3-yl)-phenol]
remaining activity at 10 µM (human AR [2]): 25.7 ± 5.5%

Structure (SMILES): Oc1ccc(C2=NOC3CCCCC23)cc1 (stereo not drawn) [Example 26b, 4-(3a,4,5,6,7,7a-Hexahydro-benzo[d]isoxazol-3-yl)-phenol]
AR antagonism against 100 nM testosterone ± S.D. (human AR [2]): 41.0 ± 1.6%

Structure (SMILES): Clc1cccc(C2=NOC3CCCCC23)c1 (single isomer, unassigned) [Example 31b, 3-(3-Chloro-phenyl)-3a,4,5,6,7,7a-hexahydro-benzo[d]-isoxazole]
Inhibition of [3H]-R1881 binding at 1.34 nM ± S.D. (human AR [1]; Table 1): 0%

Structure (SMILES): Clc1cccc(C2=NOC3CCCCC23)c1 (single isomer, unassigned) [Example 31a, 3-(3-Chloro-phenyl)-3a,4,5,6,7,7a-hexahydro-benzo[d]-isoxazole]
Inhibition of [3H]-R1881 binding at 1.34 nM ± S.D. (human AR [1]; Table 1): 20.3 ± 9.9%

Results, then the molecule that gave them:

inhibition at 13.4 µM (human AR [1]; Table 1): 68.4 ± 1.9%
AR antagonism against 100 nM testosterone ± S.D. (human AR [2]): 40.2 ± 7.1%
Structure (SMILES): c1ccc2c(C3=NOC4CCCCC34)cccc2c1 (single isomer, unassigned) [Example 33a, 3-Naphthalen-1-yl-3a,4,5,6,7,7a-hexahydro-benzo[d]-isoxazole]

remaining activity at 10 µM (human AR [2]): 48 ± 6.7%
Structure (SMILES): O=[N+]([O-])c1ccc(C2=NOC3CCCCC23)cc1 (stereo not drawn) [Example 34ab, 3-(4-Nitro-phenyl)-3a,4,5,6,7,7a-hexahydro-benzo[d]-isoxazole]

remaining activity at 10 µM (human AR [2]): 40.9 ± 2.4%
Structure (SMILES): COc1ccccc1C1=NOC2CCCCC12 (stereo not drawn) [Example 23ab, 3-(2-Methoxy-phenyl)-3a,4,5,6,7,7a-hexahydro-benzo[d]isoxazole]

inhibition at 13.4 µM (human AR [1]; Table 1): 39.1 ± 2.6%
Structure (SMILES): CCCCN1C(CCCc2ccccc2)=NOC1(C)Cc1ccccc1 (stereo not drawn) [Example 59ab, 5-Benzyl-4-butyl-5-methyl-3-(3-phenyl-propyl)-4,5-dihydro-[1,2,4]oxadiazole]

Inhibition of [3H]-R1881 binding at 1.34 nM ± S.D. (human AR [1]; Table 1): 0%
Structure (SMILES): COc1ccc(CC2=NOC(C)(Cc3ccccc3)N2CC(C)C)cc1 (single isomer, unassigned) [Example 65a, 5-Benzyl-4-isobutyl-3-(4-methoxy-benzyl)-5-methyl-4,5-dihydro-[1,2,4]oxadiazole]

Inhibition of [3H]-R1881 binding at 1.34 nM ± S.D. (human AR [1]; Table 1): 0%
Structure (SMILES): CC(C)CN1C(c2ccc([N+](=O)[O-])cc2)=NOC1(C)Cc1ccccc1 (single isomer, unassigned) [Example 61b, 5-Benzyl-4-isobutyl-5-methyl-3-(4-nitro-phenyl)-4,5-dihydro-[1,2,4]oxadiazole]
